In US8710043B2, “TRPM8 antagonists and their use in treatments” (Amgen Inc., priority 2011, dated 2014):

What follows are compounds tested against T1, human TRPM8 (Homo sapiens, UniProt Q7Z2W7) (assay: Luminescence readout assay for measuring intracellular calcium, icilin activation). Settings: CHO cells expressing human TRPM8, aequorin luminescence, 1 μM icilin activation; read-out: hTRPM8 IC50.
T1 construct: expressed in transfected cells; host or cells: Chinese hamster ovary (CHO) cells, T-REx tetracycline-inducible system, co-transfected with aequorin
Type: cell-based
Method in brief: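 The read-out was luminescence reporting intracellular calcium, recorded by a CCD-based luminometer. Compounds were preincubated for 2.5 min before agonist challenge with 1 μM icilin. Human TRPM8 was expressed in a stable T-REx CHO line, induced with 0.5 μg/mL tetracycline the day before.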

T1 sequence (Q7Z2W7 whole entry): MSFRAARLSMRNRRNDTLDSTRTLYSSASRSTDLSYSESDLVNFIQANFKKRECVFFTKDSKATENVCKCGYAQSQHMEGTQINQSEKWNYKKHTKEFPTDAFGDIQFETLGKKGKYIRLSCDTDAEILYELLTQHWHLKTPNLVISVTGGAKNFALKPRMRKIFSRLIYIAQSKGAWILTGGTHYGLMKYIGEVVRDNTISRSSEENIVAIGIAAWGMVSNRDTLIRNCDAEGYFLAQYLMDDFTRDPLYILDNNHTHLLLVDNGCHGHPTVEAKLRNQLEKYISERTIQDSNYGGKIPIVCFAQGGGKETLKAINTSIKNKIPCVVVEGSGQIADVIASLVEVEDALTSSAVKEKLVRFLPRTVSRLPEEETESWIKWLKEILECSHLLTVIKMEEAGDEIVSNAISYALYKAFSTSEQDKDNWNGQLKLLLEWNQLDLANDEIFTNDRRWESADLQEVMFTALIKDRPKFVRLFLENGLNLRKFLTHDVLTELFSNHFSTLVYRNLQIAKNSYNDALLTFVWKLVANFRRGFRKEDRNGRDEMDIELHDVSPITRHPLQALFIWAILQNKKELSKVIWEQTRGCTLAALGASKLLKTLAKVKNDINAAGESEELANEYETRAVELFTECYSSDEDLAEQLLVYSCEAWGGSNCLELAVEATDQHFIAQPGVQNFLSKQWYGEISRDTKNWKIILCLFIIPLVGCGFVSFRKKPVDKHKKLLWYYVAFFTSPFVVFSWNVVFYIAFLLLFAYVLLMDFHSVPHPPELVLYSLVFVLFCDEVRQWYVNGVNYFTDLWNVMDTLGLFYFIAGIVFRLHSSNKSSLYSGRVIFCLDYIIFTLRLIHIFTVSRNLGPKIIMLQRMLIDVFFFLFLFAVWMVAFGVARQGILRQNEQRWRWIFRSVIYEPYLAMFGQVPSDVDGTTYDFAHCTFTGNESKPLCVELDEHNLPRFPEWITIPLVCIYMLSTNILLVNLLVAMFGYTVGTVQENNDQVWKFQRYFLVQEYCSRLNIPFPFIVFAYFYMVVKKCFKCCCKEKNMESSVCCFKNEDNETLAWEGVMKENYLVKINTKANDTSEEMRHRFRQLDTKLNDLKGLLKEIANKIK

IC50 [nM] | SMILES
143 | CC(C)(O)Cn1cc(C(=O)N[C@@H](c2ccc(C(F)(F)F)cc2)c2ncccc2F)ccc1=O [Example 303, (S)-N-((3-fluoropyridin-2-yl)(4-(trifluoromethyl)phenyl)methyl)-1-(2-hydroxy-2-methylpropyl)-6-oxo-1,6-dihydropyridine-3-carboxamide]
59.6 | O=C(N[C@@H](c1ccc(OC(F)(F)F)c(F)c1)c1ncccc1F)c1ccc(=O)n(CC2(O)CC2)c1 [Example 407, (S)-N-((3-fluoro-4-(trifluoromethoxy)phenyl)(3-fluoropyridin-2-yl)methyl)-1-((1-hydroxycyclopropyl)methyl)-6-oxo-1,6-dihydropyridine-3-carboxamide]
156 | C=CCN1C(=O)c2ccc(C(=O)N[C@@H](c3ccc(C(F)(F)F)cc3)c3ncccc3C(F)(F)F)cc2C1=O [Example 268, (S)-2-Allyl-1,3-dioxo-N-((4-(trifluoromethyl)phenyl)(3-(trifluoromethyl)pyridin-2-yl)methyl)isoindoline-5-carboxamide]
78.4 | O=C(N[C@@H](c1ccc(OC(F)(F)F)cc1)c1ncccc1F)c1cc2n(n1)CCCO2 [Example 356, (S)-N-((3-fluoropyridin-2-yl)(4-(trifluoromethoxy)phenyl)methyl)-6,7-dihydro-5H-pyrazolo[5,1-b][1,3]oxazine-2-carboxamide]
270 | Cc1ccc([C@H](NC(=O)c2ccc(=O)[nH]c2)c2ncccc2F)cc1 [Example 379, (S)-N-((3-fluoropyridin-2-yl)(p-tolyl)methyl)-6-oxo-1,6-dihydropyridine-3-carboxamide]
10.3 | O=C(N[C@@H](c1ccc(OC(F)(F)F)cc1)c1ncccc1F)c1ccc2nccn2c1 [Example 89]
68.1 | O=C(N[C@@H](c1ccc(OC(F)(F)F)cc1)c1ncccc1F)c1c[nH]c(=O)cn1 [Example 354, (S)-N-((3-fluoropyridin-2-yl)(4-(trifluoromethoxy)phenyl)methyl)-5-oxo-4,5-dihydropyrazine-2-carboxamide]
29.7 | O=C1CCc2cc(C(=O)N[C@@H](c3ccc(C(F)(F)F)cc3)c3ncccc3F)ccc2N1 [Example 318, (S)-N-((3-fluoropyridin-2-yl)(4-(trifluoromethyl)phenyl)methyl)-2-oxo-1,2,3,4-tetrahydroquinoline-6-carboxamide]
20 | O=C(N[C@@H](c1ccc(C(F)(F)F)cc1)c1ncccc1C(F)(F)F)c1ccc(O)cn1 [Example 64, (S)-5-hydroxy-N-((4-(trifluoromethyl)phenyl)(3-(trifluoromethyl)pyridin-2-yl)methyl)picolinamide]
24.7 | Cn1cc(C(=O)N[C@@H](c2ccc(OC(F)(F)F)cc2)c2ncccc2F)ccc1=O [Example 252, (S)-N-((3-fluoropyridin-2-yl)(4-(trifluoromethoxy)phenyl)methyl)-1-methyl-6-oxo-1,6-dihydropyridine-3-carboxamide 2,2,2-trifluoroacetate]
1810 | O=C(O)COc1ccc(C(=O)N[C@@H](c2ccc(C(F)(F)F)cc2)c2ncccc2F)nc1 [Example 279, (S)-2-((6-(((3-Fluoropyridin-2-yl)(4-(trifluoromethyl)phenyl)-methyl)carbamoyl)pyridin-3-yl)oxy)acetic Acid]
65.9 | Nc1cnccc1C(=O)N[C@@H](c1ccc(C(F)(F)F)cc1)c1ncccc1C(F)(F)F [Example 139, (S)-3-amino-N-((4-(trifluoromethyl)phenyl)(3-(trifluoromethyl)pyridin-2-yl)methyl)isonicotinamide]
644 | Cc1cc(F)cc([C@H](NC(=O)c2ccc(=O)[nH]c2)c2ncccc2F)c1 [Example 325, (S)-N-((3-fluoro-5-methylphenyl)(3-fluoropyridin-2-yl)methyl)-6-oxo-1,6-dihydropyridine-3-carboxamide]
52.4 | O=C(N[C@@H](c1ccc(OC(F)(F)F)c(F)c1)c1ccc(F)cn1)c1ccc(=O)[nH]c1 [Example 292, (S)-N-((3-fluoro-4-(trifluoromethoxy)phenyl)(5-fluoropyridin-2-yl)methyl)-6-oxo-1,6-dihydropyridine-3-carboxamide]
373 | Cc1ccnn1CC(=O)N[C@@H](c1ccc(C(F)(F)F)cc1)c1ncccc1C(F)(F)F [Example 153, (S)-2-(5-methyl-1H-pyrazol-1-yl)-N-((4-(trifluoromethyl)phenyl)(3-(trifluoromethyl)pyridin-2-yl)methyl)acetamide]
268 | Cn1cc(C(=O)N[C@@H](c2ccc(F)c(F)c2)c2ncccc2F)ccc1=O [Example 332, (S)-N-((3,4-difluorophenyl)(3-fluoropyridin-2-yl)methyl)-1-methyl-6-oxo-1,6-dihydropyridine-3-carboxamide]
57.2 | CC#Cc1cccnc1[C@@H](NC(=O)c1ccc(OC)cc1)c1ccc(C(F)(F)F)cc1 [Example 95, (S)-4-methoxy-N-((3-(prop-1-yn-1-yl)pyridin-2-yl)(4-(trifluoromethyl)phenyl)methyl)benzamide 2,2,2-trifluoroacetate]

IC50 [nM] | SMILES
19.4 | O=C(N[C@@H](c1ccc(C(F)(F)F)cc1)c1ncccc1C(F)(F)F)c1ccc(Cl)nc1 [Example 135, (S)-6-chloro-N-((4-(trifluoromethyl)phenyl)(3-(trifluoromethyl)pyridin-2-yl)methyl)nicotinamide]
808 | O=C(N[C@@H](c1ccc(F)cc1)c1ncccc1F)c1ccc(=O)[nH]c1 [Example 340, (S)-N-((4-fluorophenyl)(3-fluoropyridin-2-yl)methyl)-6-oxo-1,6-dihydropyridine-3-carboxamide]
120 | O=C(N[C@@H](c1ccc(OC(F)(F)F)c(F)c1)c1ncccc1F)c1c[nH]c(=O)c(C(F)(F)F)c1 [Example 402, (S)-N-((3-fluoro-4-(trifluoromethoxy)phenyl)(3-fluoropyridin-2-yl)methyl)-6-oxo-5-(trifluoromethyl)-1,6-dihydropyridine-3-carboxamide]
16.5 | O=C(N[C@@H](c1ccc(OC(F)(F)F)c(F)c1)c1ncccc1F)c1ccc(=O)n(C(F)F)c1 [Example 399, (S)-1-(difluoromethyl)-N-((3-fluoro-4-(trifluoromethoxy)phenyl)(3-fluoropyridin-2-yl)methyl)-6-oxo-1,6-dihydropyridine-3-carboxamide]
3710 | COn1cc(C(=O)N[C@@H](c2ccc(C(F)(F)F)cc2)c2ncccc2F)ccc1=O [Example 369, (S)-N-((3-fluoropyridin-2-yl)(4-(trifluoromethyl)phenyl)methyl)-1-methoxy-6-oxo-1,6-dihydropyridine-3-carboxamide]
83.7 | O=C(N[C@@H](c1ccc(C(F)(F)F)cc1)c1ncccc1C(F)(F)F)c1cnc2ccccc2c1 [Example 230, (S)-N-((4-(trifluoromethyl)phenyl)(3-(trifluoromethyl)pyridin-2-yl)methyl)quinoline-3-carboxamide]
103 | Cc1ccc([C@H](NC(=O)c2ccc(=O)[nH]c2)c2ncccc2F)cc1F [Example 334, (S)-N-((3-fluoro-4-methylphenyl)(3-fluoropyridin-2-yl)methyl)-6-oxo-1,6-dihydropyridine-3-carboxamide]
140 | O=C(NC(c1ccc(F)cc1)c1ccc(OC(F)(F)F)c(F)c1)c1ccc(=O)[nH]c1 (stereo not shown) [Example 411, N-((3-fluoro-4-(trifluoromethoxy)phenyl)(4-fluorophenyl)methyl)-6-oxo-1,6-dihydropyridine-3-carboxamide]
54 | O=C(N[C@@H](c1ccc(OC(F)(F)F)c(F)c1)c1ncccc1F)c1ccc[nH]c1=O [Example 416, (S)-N-((3-fluoro-4-(trifluoromethoxy)phenyl)(3-fluoropyridin-2-yl)methyl)-2-oxo-1,2-dihydropyridine-3-carboxamide]
1060 | Cn1cc(C(=O)N[C@@H](c2cc(F)cc(C(F)(F)F)c2)c2ncccc2F)ccc1=O [Example 328, (S)-N-((3-fluoro-5-(trifluoromethyl)phenyl)(3-fluoropyridin-2-yl)methyl)-1-methyl-6-oxo-1,6-dihydropyridine-3-carboxamide]
15.2 | O=C1Cc2cc(C(=O)N[C@@H](c3ccc(C(F)(F)F)cc3)c3ncccc3F)ccc2N1 [Example 70, (S)-N-((3-fluoropyridin-2-yl)(4-(trifluoromethyl)phenyl)methyl)-2-oxoindoline-5-carboxamide]
68.3 | CC(C)n1cc(C(=O)N[C@@H](c2ccc(C(F)(F)F)cc2)c2ncccc2F)ccc1=O [Example 367, (S)-N-((3-fluoropyridin-2-yl)(4-(trifluoromethyl)phenyl)methyl)-1-isopropyl-6-oxo-1,6-dihydropyridine-3-carboxamide]
105 | Cc1ncoc1C(=O)NC(c1ccc(C(F)(F)F)cc1)c1ncccc1F (stereo not shown) [Example 221]
140 | O=C(N[C@@H](c1ccc(C(F)(F)F)cc1)c1ncccc1C(F)(F)F)c1ccc(Br)cn1 [Example 205, (S)-5-bromo-N-((4-(trifluoromethyl)phenyl)(3-(trifluoromethyl)pyridin-2-yl)methyl)picolinamide]
253 | COc1ncc(C(=O)N[C@@H](c2ccc(C(F)(F)F)cc2)c2ncccc2F)cn1 [Example 264, (S)—N-((3-Fluoropyridin-2-yl)(4-(trifluoromethyl)phenyl)methyl)-2-methoxypyrimidine-5-carboxamide]
210 | O=C(N[C@@H](c1ccc(C(F)(F)F)cc1)c1ncccc1C(F)(F)F)c1cccc(C(=O)c2ccccc2)c1 [Example 246, (S)-3-benzoyl-N-((4-(trifluoromethyl)phenyl)(3-(trifluoromethyl)pyridin-2-yl)methyl)benzamide 2,2,2-trifluoroacetate]
405 | O=C(N[C@@H](c1ccc(C(F)(F)F)cc1)c1ncccc1C(F)(F)F)c1cc2cccnc2[nH]1 [Example 66, (S)-N-((4-(trifluoromethyl)phenyl)(3-(trifluoromethyl)pyridin-2-yl)methyl)-1H-pyrrolo[2,3-b]pyridine-2-carboxamide]
